# Data: patent publication US10202391B2, “Chemical compounds” (AstraZeneca AB, priority 2015, dated 2019)
# Key:
# ERK2 = target: T1, ERK2 (Homo sapiens, UniProt P28482); experiment: ERK2 Rapidfire Mass Spectrometry Inhibition of Catalysis Assay; type: biochemical; conditions: 1.2 nM ERK2, 16 μM Erktide, 120 μM ATP (measured Km), 15 minute pre-incubation; read-out: ERK2 Mass Spectrometry Enzyme IC50
# T1 construct: made in house
# Protocol: (§1) All compounds or DMSO (dimethyl sulphoxide) for the ERK2 Mass Spectrometry and A375 phospho-p90RSK assays were dispensed from source plates containing compounds at 10 mM in 100% (v/v) DMSO or 100% DMSO, directly into assay plates using an Echo 555 Acoustic dispenser (Labcyte Inc™). Depending on the assay, two separate plate preparations were followed. In Workflow A, 10 mM compound stocks were diluted 1:100 using a fixed-tip 96-head Agilent VPrep liquid handler (Agilent Technologies, Santa Clara, Calif.) to give four intermediate dilutions (10 mM, 100 μM, 1 μM, 10 nM). In Workflow B, 10 mM compound stocks were diluted 1:10 using a Tecan Freedom Evo (Tecan Group Ltd., Switzerland), and then 1:100 using the Echo 555 and Labcyte LX to produce three intermediate dilutions across three Labcyte qualified source plates (1 mM, 10 μM, 100 nM). These intermediate dilution plates were then used by the Echo 555 to generate final assay-ready compound plates with a 12 point dose range (10, 3, 1, 0.25, 0.1, 0.03, 0.01, 0.0025, 0.001, 0.0003, 0.0001, 0.0000125 μM) in order to calculate compound IC50s, with a total DMSO concentration in the assay of 1%. For the ERK2 Mass Spectrometry assay Workflow B was used. For the A375 phospho-p90RSK cell assay, the intermediate 1:100 dilution plate described in Workflow A was used by the Echo to dispense compounds and DMSO directly into the cell plates with a 12 point dose range (30, 10, 3.125, 1.25, 0.3, 0.1, 0.03125, 0.0125, 0.003, 0.001, 0.0003125, 0.00003 μM) in order to calculate compound IC50's, with a total DMSO concentration in the assay of 0.3%.
# ERK2 Rapidfire Mass Spectrometry Inhibition of Catalysis Assay
# MEK U911-activated ERK2 protein was expressed and purified in-house. Enzyme and substrate solutions were made up in assay buffer consisting of 50 mM Tris (pH 7.5), 10 mM MgCl2, 0.1 mM EGTA (ethylene glycol tetraacetic acid), 10 mM DTT (dithiothreitol) and 0.01% (v/v) CHAPS (3-[(3-Cholamidopropyl)dimethylammonio]-1-propanesulfonate). 1.2 nM ERK2 protein was prepared in assay buffer and 10 μl was dispensed into each well of a polypropylene, 384-well plate (#781201, Greiner) containing test and reference control compounds. […] The reaction was allowed to progress for 20 minutes at room temperature before being quenched by the addition of 80 al 1% (v/v) formic acid. The assay plates were then run on the RapidFire Mass Spectrometry platform (Agilent) to measure substrate (unphosphorylated Erktide) and product (phosphorylated Erktide) levels. Data was analysed and IC50's (half maximal inhibitory concentration) were calculated using Genedata Screener® software.
# [1] = system: phospho-p90RSK in A375 cell line; experiment: A375 Phospho-p90RSK Cellular Assay; type: cell-based, human; conditions: A375 cells, 2 hours incubation
# Protocol: as §1
# A375 Phospho-p90RSK Cellular Assay
# A375 cells were cultured in cell media composed of DMEM (Dulbecco's modified Eagle's medium), 10% (v/v) Foetal Calf Serum and 1% (v/v) L-Glutamine. After harvesting, cells were dispensed into black, 384-well Costar plates (#3712, Corning) to give 2400 cells per well in a total volume of 40 μl cell media, and were incubated overnight at 37° C., 90% relative humidity and 5% CO2 in a rotating incubator. Test compounds and reference controls were dosed directly into the cell plates using a Labcyte Echo 555 acoustic dispenser. The cell plates were then incubated for 2 hours at 37° C. before being fixed by the addition of 20 μl 12% formaldehyde in PBS/A (4% final concentration), followed by a 20 minute room temperature incubation, and then a 2× wash with 150 μl PBS/A (phosphate buffered saline containing albumin) using a BioTek ELx405 platewasher. Cells were permeabilised with 20 μl 0.1% Triton X-100 in PBS/A for 20 minutes at room temperature, and then washed 1× with 100 μl PBS/A. Primary phospho-p90RSK (Thr359) (D1E9) rabbit monoclonal antibody (#8753, Cell Signaling Technology) was diluted 1:1000 in assay buffer (0.05% (v/v) Tween, 5% (v/v) Foetal Calf Serum, in PBS/A), 20 μl added per well, and plates were incubated at 4° C. overnight. Cell plates were washed 2× with 200 μl PBS/T (phosphate buffered saline containing Tween-20), then 20 μl 1:500 dilution in assay buffer of Alexa Fluor® 647 goat anti-rabbit IgG secondary antibody (#A31573, Molecular Probes, Life Technologies), with a 1:5000 dilution of Hoechst 33342, was added per well. Following a 90 minute incubation at room temperature, plates were washed 2× with 200 μl PBS/T, and 40 μl PBS/A was added per well. Stained cell plates were covered with black lid seals, and then read on a Cellomics ArrayScan™ VTI imaging platform (Thermo Scientific), using an XF53 filter with 10× objective, with a LED light source set-up to analyse nuclear staining with Hoechst 33342 (405 nm) and secondary antibody staining of phospho-p90RSK (647 nm). Data was analysed and IC50's were calculated using Genedata Screener® software.
# A549 xenograft = experiment: Tumour growth inhibition in A549 xenograft model; type: in vivo, mice; conditions: selumetinib 25 mg/kg BiD or Example 18a 25 mg/kg QD, peroral, continuously for 3 weeks, relative to vehicle
# Protocol: A549 is a human non small cell lung cancer line carrying an oncogenic mutation in the KRAS gene (G12S). Female nude mice (Harlan, UK) were implanted subcutaneously (s.c.) on the left flank, with 5×10^6 A549 cells (ATCC) per mouse.
# Tumour growth was monitored by twice weekly calliper measurement and volumes calculated using elliptical formula (pi/6×width×width×length). Once tumours had reached a volume of ˜200-300 mm^3 animals were randomised into groups of 7-11 and were treated with a continuous combination schedule of selumetinib (ARRY-142886) 25 mg/kg BiD and Example 18a 25 mg/kg QD (four hours after first selumetinib dose), both were dosed by peroral route. Tumour volumes were measured twice weekly after dosing commenced.
# Selumetinib was formulated in HPMC/Tween (0.5% Methocel [hydroxypropyl methocellulose]/0.1% Polysorbate 80), the suspension was stirred over night. Example 18a was formulated in 10% DMSO, 90% of a 40% kleptose solution (Kleptose is sourced from Roquette—Pharma [Trademarked] Hydroxypropyl betacyclodextrin—suitable for in-vivo use and formulations).
# Studies were performed in the A549 xenograft model. Selumetinib was dosed twice daily (BiD) 8 hours apart and Example 18a was dosed once daily (QD) 4 hours after the first selumetinib dose. Both compounds were dosed continuously for 3 weeks. Both vehicles were dosed in the vehicle group.
# T1 sequence (P28482 whole entry): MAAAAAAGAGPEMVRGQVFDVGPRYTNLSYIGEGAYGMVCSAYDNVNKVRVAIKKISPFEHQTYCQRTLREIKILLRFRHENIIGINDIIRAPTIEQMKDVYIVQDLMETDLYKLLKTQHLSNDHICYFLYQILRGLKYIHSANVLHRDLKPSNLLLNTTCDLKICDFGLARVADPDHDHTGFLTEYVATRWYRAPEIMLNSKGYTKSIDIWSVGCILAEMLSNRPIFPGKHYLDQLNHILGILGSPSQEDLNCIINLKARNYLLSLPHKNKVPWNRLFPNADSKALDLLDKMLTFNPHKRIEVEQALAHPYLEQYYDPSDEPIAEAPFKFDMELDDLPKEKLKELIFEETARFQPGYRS
IC50 (ERK2),IC50 [1],"IC50 ([1]; Homo sapiens, A-375)","IC50 ([1]; Homo sapiens, A-375, 2 h)",SMILES,"tumour growth, single agent (A549 xenograft)"
0.6 nM,7.4 nM,–,–,"COC[C@H]1Cn2cc(-c3nc(Nc4ccnn4C)ncc3C)nc2C(=O)N1Cc1ccc(F)c(F)c1 [Example 18a, (R)-7-(3,4-Difluorobenzyl)-6-(methoxymethyl)-2-(5-methyl-2-((1-methyl-1H-pyrazol-5-yl)amino)pyrimidin-4-yl)-6,7-dihydroimidazo[1,2-a]pyrazin-8(5H)-one Ethanesulfonic acid adduct Form 1]",reduced tumour growth relative to vehicle only control
0.9 nM,–,130 nM,–,"Cc1cnc(Nc2ccnn2C)nc1-c1cn2c(n1)C(=O)N(Cc1cc(C(F)(F)F)ccn1)[C@@H](C)C2 [Example 29, (S)-6-Methyl-2-(5-methyl-2-((1-methyl-1H-pyrazol-5-yl)amino)pyrimidin-4-yl)-7-((4-(trifluoromethyl)pyridin-2-yl)methyl)-6,7-dihydroimidazo[1,2-a]pyrazin-8(5H)-one]",–
0.7 nM,–,200 nM,–,"Cc1cnc(Nc2ccnn2C)nc1-c1cn2c(n1)C(=O)N(Cc1ccnc(C(F)(F)F)c1)[C@@H](C)C2 [Example 30, (S)-6-Methyl-2-(5-methyl-2-((1-methyl-1H-pyrazol-5-yl)amino)pyrimidin-4-yl)-7-((2-(trifluoromethyl)pyridin-4-yl)methyl)-6,7-dihydroimidazo[1,2-a]pyrazin-8(5H)-one]",–
0.8 nM,–,140 nM,–,"Cc1cnc(Nc2ccnn2C)nc1-c1cn2c(n1)C(=O)N(Cc1cc(C(F)F)ccn1)[C@@H](C)C2 [Example 31, (S)-7-((4-(Difluoromethyl)pyridin-2-yl)methyl)-6-methyl-2-(5-methyl-2-((1-methyl-1H-pyrazol-5-yl)amino)pyrimidin-4-yl)-6,7-dihydroimidazo[1,2-a]pyrazin-8(5H)-one]",–
0.9 nM,–,99 nM,–,"Cc1cnc(Nc2ccnn2C)nc1-c1cn2c(n1)C(=O)N(Cc1cc(C(F)(F)F)ncn1)[C@@H](C)C2 [Example 32, (S)-6-Methyl-2-(5-methyl-2-((1-methyl-1H-pyrazol-5-yl)amino)pyrimidin-4-yl)-7-((6-(trifluoromethyl)pyrimidin-4-yl)methyl)-6,7-dihydroimidazo[1,2-a]pyrazin-8(5H)-one]",–
0.8 nM,–,–,31 nM,"Cc1cnc(Nc2ccnn2C)nc1-c1cn2c(n1)C(=O)N(Cc1ccc(F)c(F)c1)CC2 [Example 33, 7-(3,4-Difluorobenzyl)-2-(5-methyl-2-((1-methyl-1H-pyrazol-5-yl)amino)pyrimidin-4-yl)-6,7-dihydroimidazo[1,2-a]pyrazin-8(5H)-one]",–
1.4 nM,–,51 nM,–,"Cc1cnc(Nc2ccnn2C)nc1-c1cn2c(n1)C(=O)N(Cc1cccc(C(F)(F)F)n1)[C@H](C)C2 [Example 36, (R)-6-Methyl-2-(5-methyl-2-((1-methyl-1H-pyrazol-5-yl)amino)pyrimidin-4-yl)-7-((6-(trifluoromethyl)pyridin-2-yl)methyl)-6,7-dihydroimidazo[1,2-a]pyrazin-8(5H)-one]",–
0.7 nM,–,64 nM,–,"Cc1cnc(Nc2ccnn2C)nc1-c1cn2c(n1)C(=O)N(Cc1cccc(C(F)F)n1)[C@H](C)C2 [Example 37, (R)-7-((6-(Difluoromethyl)pyridin-2-yl)methyl)-6-methyl-2-(5-methyl-2-((1-methyl-1H-pyrazol-5-yl)amino)pyrimidin-4-yl)-6,7-dihydroimidazo[1,2-a]pyrazin-8(5H)-one]",–
0.7 nM,–,8 nM,–,"COC[C@H]1Cn2cc(-c3nc(Nc4ccnn4C)ncc3C)nc2C(=O)N1Cc1cccc(C(F)F)c1 [Example 38, (R)-7-(3-(Difluoromethyl)benzyl)-6-(methoxymethyl)-2-(5-methyl-2-((1-methyl-1H-pyrazol-5-yl)amino)pyrimidin-4-yl)-6,7-dihydroimidazo[1,2-a]pyrazin-8(5H)-one]",–
1.8 nM,–,70 nM,–,"COC[C@H]1Cn2cc(-c3nc(Nc4ccnn4C)ncc3C)nc2C(=O)N1Cc1cccc(C(F)(F)F)n1 [Example 39, (R)-6-(Methoxymethyl)-2-(5-methyl-2-((1-methyl-1H-pyrazol-5-yl)amino)pyrimidin-4-yl)-7-((6-(trifluoromethyl)pyridin-2-yl)methyl)-6,7-dihydroimidazo[1,2-a]pyrazin-8(5H)-one]",–
1.1 nM,–,32 nM,–,"COC[C@H]1Cn2cc(-c3nc(Nc4ccnn4C)ncc3C)nc2C(=O)N1Cc1cc(F)cc(F)c1 [Example 40, (R)-7-(3,5-difluorobenzyl)-6-(methoxymethyl)-2-(5-methyl-2-((1-methyl-1H-pyrazol-5-yl)amino)pyrimidin-4-yl)-6,7-dihydroimidazo[1,2-a]pyrazin-8(5H)-one]",–
1.5 nM,–,130 nM,–,"COC[C@H]1Cn2cc(-c3nc(Nc4ccnn4C)ncc3C)nc2C(=O)N1Cc1cccc(OC)c1 [Example 41, (R)-7-(3-Methoxybenzyl)-6-(methoxymethyl)-2-(5-methyl-2-((1-methyl-1H-pyrazol-5-yl)amino)pyrimidin-4-yl)-6,7-dihydroimidazo[1,2-a]pyrazin-8(5H)-one]",–
